Test results as given in PubChem BioAssay AID200 (DTP/NCI, 2004).
Several values for one entry are separate records, joined by “and”; a condition that tells them apart may be missing. Equal values may be shown once. Toxic doses and inconclusive results are not listed.

System: B6C3F1 mice, B16 melanoma ip, median survival T/C
Experiment: NCI In Vivo Anticancer Drug Screen. Data for tumor model B16 Melanoma (intraperitoneal) in B6C3F1 mice
Settings: endpoint: median survival time, schedule: Q01DX009 (ip), higher = longer survival
In short: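 Antitumor effect was judged in mice with transplanted tumors by dividing the treated group's survival measure by that of vehicle controls.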

[1] = dose: 6.25 mg/kg/injection, vehicle: Klucel (hydroxypropylcellulose) (HPC)
[2] = dose: 12.5 mg/kg/injection, vehicle: Klucel (hydroxypropylcellulose) (HPC)
[3] = dose: 25.0 mg/kg/injection, vehicle: Klucel (hydroxypropylcellulose) (HPC)
[4] = dose: 50.0 mg/kg/injection, vehicle: Klucel (hydroxypropylcellulose) (HPC)
[5] = dose: 100.0 mg/kg/injection, vehicle: Klucel (hydroxypropylcellulose) (HPC)
[6] = dose: 25.0 mg/kg/injection, vehicle: saline with Tween-80
[7] = dose: 50.0 mg/kg/injection, vehicle: saline with Tween-80
[8] = dose: 100.0 mg/kg/injection, vehicle: saline with Tween-80
[9] = dose: 3.12 mg/kg/injection, vehicle: saline with Tween-80
[10] = dose: 6.25 mg/kg/injection, vehicle: saline with Tween-80
[11] = dose: 12.5 mg/kg/injection, vehicle: saline with Tween-80
[12] = dose: 25.0 mg/kg/injection, vehicle: saline
[13] = dose: 200.0 mg/kg/injection, vehicle: Klucel (hydroxypropylcellulose) (HPC)
[14] = dose: 12.5 mg/kg/injection, vehicle: saline

CC(C)NC(=O)OCc1c(COC(=O)NC(C)C)c(-c2ccc(Cl)c(Cl)c2)n2c1CC(OC(=O)CN(C)C)C2 (centres undefined)
T/C (dose: 10.0 mg/kg/injection, vehicle: distilled water + Tween-80): 152 % of control and 153 % of control
T/C (dose: 20.0 mg/kg/injection, vehicle: distilled water + Tween-80): 152 % of control and 168 % of control
T/C (dose: 40.0 mg/kg/injection, vehicle: distilled water + Tween-80): 174 % of control and 190 % of control

CC(C)(C)OC(=O)NC(CCCCNC(=O)C(F)(F)F)C(=O)O (centres undefined)
T/C [1]: 109 % of control
T/C [2]: 99 % of control
T/C [3]: 89 % of control and 99 % of control
T/C [4]: 88 % of control and 96 % of control
T/C [5]: 96 % of control

O=C(c1cccnc1)c1cc(-c2ccccn2)c(=O)n2ccccc12
T/C [6]: 96 % of control
T/C [7]: 98 % of control
T/C [8]: 89 % of control

Cc1cc(NC(=S)SCc2ccc3c(c2)OCO3)ccc1Cl
T/C [4]: 103 % of control
T/C [5]: 112 % of control

COc1ccc(-c2cc(=O)c3ccc4c(O)cccc4c3o2)cc1
T/C [9]: 97 % of control
T/C [10]: 88 % of control
T/C [6]: 86 % of control
T/C [7]: 93 % of control

CN(C)N=Nc1cccc2c1N(C)c1ccc(Cl)cc1S2
T/C (dose: 6.25 mg/kg/injection, vehicle: other): 109 % of control
T/C (dose: 12.5 mg/kg/injection, vehicle: other): 108 % of control
T/C (dose: 25.0 mg/kg/injection, vehicle: other): 103 % of control
T/C (dose: 50.0 mg/kg/injection, vehicle: other): 104 % of control
T/C (dose: 100.0 mg/kg/injection, vehicle: other): 89 % of control

O=C(NCc1ccccc1)c1cccnc1
T/C [8]: 94 % of control
T/C (dose: 200.0 mg/kg/injection, vehicle: saline with Tween-80): 94 % of control
T/C (dose: 400.0 mg/kg/injection, vehicle: saline with Tween-80): 93 % of control

CC(C)=CCC/C(C)=C\C=N\NS(=O)(=O)c1ccc([N+](=O)[O-])cc1
T/C [10]: 89 % of control
T/C [11]: 93 % of control
T/C [6]: 100 % of control
T/C [7]: 94 % of control

COc1cc(C2c3cc4c(cc3[C@@H](OC3OC5CO[C@@H](C)OC5C(O)C3O)[C@H]3COC(=O)C23)OCO4)cc(OC)c1OC (some centres undefined)
T/C (dose: 21.6 mg/kg/injection, vehicle: suspension in saline): 120 % of control
T/C [12]: 150 % of control
T/C (dose: 50.0 mg/kg/injection, vehicle: saline): 160 % of control
T/C (dose: 60.0 mg/kg/injection, vehicle: suspension in saline): 162 % of control
T/C (dose: 100.0 mg/kg/injection, vehicle: saline): 193 % of control
T/C (dose: 100.0 mg/kg/injection, vehicle: suspension in saline): 183 % of control

N[C@@H](C[C@H]1CCC(=O)[C@@H]2O[C@H]12)C(=O)O
T/C (dose: 25.0 mg/kg/injection, vehicle: saline + alcohol): 99 % of control
T/C (dose: 50.0 mg/kg/injection, vehicle: saline + alcohol): 110 % of control
T/C (dose: 400.0 mg/kg/injection, vehicle: saline + alcohol): 155 % of control

Cc1cc(=O)n2c3c(c4c(cc13)c(CN(C)C)cc(=O)n4C)OC2
T/C [10]: 105 % of control
T/C [11]: 98 % of control
T/C [6]: 100 % of control
T/C [7]: 111 % of control

O=C(O)c1cc(Cc2ccc(O)c(C(=O)O)c2)ccc1O (tested in a mixture with another compound)
T/C [1]: 101 % of control
T/C [2]: 105 % of control
T/C [3]: 103 % of control
T/C [4]: 94 % of control
T/C [5]: 90 % of control
T/C [13]: 93 % of control

CC(=O)NO
T/C (dose: 50.0 mg/kg/injection, vehicle: water): 89 % of control
T/C (dose: 100.0 mg/kg/injection, vehicle: water): 102 % of control
T/C (dose: 200.0 mg/kg/injection, vehicle: water): 100 % of control
T/C (dose: 400.0 mg/kg/injection, vehicle: water): 112 % of control

C=CCOc1cc2c(cc1C(C)c1ccc(OC)cc1)OCO2 (centres undefined)
T/C [3]: 120 % of control
T/C [4]: 124 % of control and 99 % of control
T/C [5]: 108 % of control
T/C [13]: 115 % of control

COC1C(N)C(OC2C(Oc3cccc4c(O)c5c(=O)oc6ccc(C)c7c(=O)oc(c34)c5c67)OC(C)C(O)C2(C)O)OC(C)C1O (centres undefined)
T/C (dose: 1.09 mg/kg/injection, vehicle: DMSO): 226 % of control
T/C (dose: 1.25 mg/kg/injection, vehicle: other): 179 % of control
T/C (dose: 1.81 mg/kg/injection, vehicle: DMSO): 255 % of control
T/C (dose: 2.5 mg/kg/injection, vehicle: other): 227 % of control
T/C (dose: 3.0 mg/kg/injection, vehicle: DMSO): 244 % of control
T/C (dose: 5.0 mg/kg/injection, vehicle: DMSO): 326 % of control
T/C (dose: 5.0 mg/kg/injection, vehicle: other): 227 % of control
T/C (dose: 8.4 mg/kg/injection, vehicle: DMSO): 190 % of control
T/C (dose: 10.0 mg/kg/injection, vehicle: other): 179 % of control

CC(=O)OC1(C)CC(C)C(=O)C(C(O)CC2CC(=O)NC(=O)C2)C1 (centres undefined)
T/C (dose: 15.6 micrograms/kg/injection, vehicle: saline): 111 % of control
T/C (dose: 31.3 micrograms/kg/injection, vehicle: saline): 107 % of control
T/C (dose: 62.5 micrograms/kg/injection, vehicle: saline): 104 % of control
T/C (dose: 125.0 micrograms/kg/injection, vehicle: saline): 108 % of control
T/C (dose: 250.0 micrograms/kg/injection, vehicle: saline): 117 % of control

CCC1OCC(C(Cl)CCl)O1 (centres undefined)
T/C [3]: 105 % of control
T/C [4]: 96 % of control
T/C [5]: 91 % of control
T/C [13]: 98 % of control

C=C(C)[C@H]1CN[C@H](C(=O)O)[C@H]1CC(=O)O
T/C (dose: 0.31 mg/kg/injection, vehicle: saline): 96 % of control
T/C (dose: 0.62 mg/kg/injection, vehicle: saline): 100 % of control
T/C (dose: 1.25 mg/kg/injection, vehicle: saline): 91 % of control
T/C (dose: 2.5 mg/kg/injection, vehicle: saline): 100 % of control
T/C (dose: 5.0 mg/kg/injection, vehicle: saline): 90 % of control
T/C (dose: 6.25 mg/kg/injection, vehicle: saline): 102 % of control
T/C (dose: 10.0 mg/kg/injection, vehicle: saline): 86 % of control
T/C [14]: 101 % of control
T/C [12]: 93 % of control

CCCCCCCCCCCCCCCC[N+]1(C)CCN(SN2CC[N+](C)(CCCCCCCCCCCCCCCC)CC2)CC1
T/C [14]: 96 % of control
T/C [12]: 100 % of control
T/C [7]: 89 % of control

C[n+]1c(-c2cccc(OCCOCCOc3cccc(-c4c5cc(N)ccc5c5ccc(N)cc5[n+]4C)c3)c2)c2cc(N)ccc2c2ccc(N)cc21
T/C (dose: 0.25 mg/kg/injection, vehicle: distilled water + Tween-80): 99 % of control
T/C (dose: 0.5 mg/kg/injection, vehicle: distilled water + Tween-80): 107 % of control
T/C (dose: 1.0 mg/kg/injection, vehicle: distilled water + Tween-80): 117 % of control

O=C(CO)c1ccc([N+](=O)[O-])cc1
T/C [9]: 113 % of control
T/C [10]: 94 % of control
T/C [6]: 105 % of control
T/C [7]: 100 % of control
T/C [8]: 93 % of control
